In patent US8394832B2, “Methods and compositions using immunomodulatory compounds for the treatment of immunodeficiency disorders” (Celgene Corporation, priority 2004, dated 2013):

Tests used:
[1] = system: TLR 9; assay: TLR 9 expression by FACS array in B cells; format: cell-based, human; details: 0.0006-60 μM, in combination with other stimuli, particularly IgM, 3 days (FIGS. 8A-8D)
Description: (§1) Human buffy coat (50 ml) was diluted with 50 ml sterile PBS (Ca^++, Mg^++ free), and mixed gently. A 25 ml aliquot of diluted buffy coat was transferred to each 50 ml centrifuge tube, and Histopaque-1077 (14 ml, #1077-1, Sigma) was gently layered into the bottom of the tube. The sample was centrifuged at 2,000 rpm for 30 min at room temperature. The interface containing mononuclear cells was transferred into 50 ml centrifuge tube, and washed once with PBS (1200 rpm, 5 min). The supernatant was discarded. Cell pellet was resuspended in Miltenyi buffer. Anti-CD19^+ microbeads were added to the suspension (10^7 cells in 80 μl of buffer, 20 μl antibody beads for 10^7 cells) and incubated for 15 min at 4° C. Cell pellet was washed once and resuspended in 1 ml Miltenyi buffer. The cell suspension was added to the magnetic column, washed with 10 ml Miltenyi buffer in the column. CD19^+ cells are released by 1 ml Miltenyi Buffer without magnetic field. CD19^+ cells were washed twice with RPMI complete medium. B cells (2×10^5) were plated in 96 well plate.
B cells were plated in 96 well plate and treated with 1,3-dioxo-(2,6-dioxopiperidin-3-yl)-4-aminoisoindoline at concentrations of 60 μM, 6 μM, 0.6 μM, 0.06 μM, 0.006 μM and 0.0006 μM in presence of stimuli for 3 days. […] B cells were resuspended in 150 μl PBS containing 1% BSA and read in FACS array instrument (BD Bioscience).

[2] = system: TNFα; assay: TNFα ELISA of treated B cells; format: cell-based, human; details: activated CD19+ cells (FIG. 4)
Description: as §1, with “plate. […]” for “plate.”
TNFα levels in 1,3-dioxo-(2,6-dioxopiperidin-3-yl)-4-aminoisoindoline or 1-oxo-(2,6-dioxopiperidin-3-yl)-4-aminoisoindoline treated B cells were determined using TNFα ELISA.

[3] = system: IgE synthesis; assay: IgE ELISA of human PBMC treated with anti CD40 and IL-4 for three weeks; format: cell-based; details: 504 h, human PBMCs in presence of CD40+IL-4 for three weeks (FIGS. 11A and B), read-out: IC50 of inhibition of IgE synthesis
Description: Human PBMCs (1×10^6/ml) were treated with immunomodulatory compounds in presence of anti-CD40 (2 ug/ml) and IL-4 (40 ng/ml) for three weeks. Fifty microliter of supernatant was used for IgE ELISA, following the manufacturer's instruction. The absorbance was read by ELISA reader at OD=450 nm.
IL-4 is a unique signal for B cells to produce IgE during the immunoglobulin class switch. To assess whether immunomodulatory compounds can regulated IgE synthesis, 1,3-dioxo-(2,6-dioxopiperidin-3-yl)-4-aminoisoindoline or 1-oxo-(2,6-dioxopiperidin-3-yl)-4-aminoisoindoline was incubated with human PBMCs in presence of CD40+IL-4 for three weeks. […] (FIGS. 11A and B).
Treatment of PBMC: 200 μl of 1×10^6/ml human PBMC were plated in 96 well plate, and the cells were pretreated with IMiDs at indicated concentrations (60, 6, 0.6, 0.06, 0.006, 0.0006 uM) for 30 minutes. Anti CD40 (#AHS4002, Biosource, 2 μg/ml) and IL-4 (#200-04, Pepro Tech, 40 ng/ml) were added to each well. Human PBMC in presence of IMiDs, anti CD40 and IL-4 were incubated for three weeks. Fifty microliters of supernatant was subjected to IgE ELISA.
IgE ELISA: The IgE ELISA Quantitation Kit was purchased from Bethyl Laboratories, Inc. (#E80-108). […] The ELISA plate was read at OD=450 nm in ELISA plate reader.

[4] = system: B cells; assay: Morphological changes of activated B cells (phase contrast microscopy); format: cell-based, human; details: treated with compound and anti-IgM (FIG. 7B)
Description: as §1
B cells were treated with 1,3-dioxo-(2,6-dioxopiperidin-3-yl)-4-aminoisoindoline (FIG. 6) in presence of anti IgM, anti CD40 and IL-4 for 3 days. The images were captured using phase contrast microscopy with MetaMorph software.
Morphological changes also support IMiDs' costimulation of B cells to drive their proliferation. […]

[5] = system: STAT6; assay: Western blotting of phospho-STAT6 in IL-4 stimulated CD-19 B cells; format: cell-based, human; details: B cells pretreated 30 minutes, then 100 ng/ml IL-4 for 30 minutes (FIG. 11D)
Description: CD-19 B cells (2×10^6/ml) were pretreated with 1,3-dioxo-(2,6-dioxopiperidin-3-yl)-4-aminoisoindoline at 10 μM and 1 μM for 30 minutes. IL-4 (100 ng/ml) was added to cell suspension for 30 minutes, and the cell pellet was washed once by PBS and lysed with 50 μl of the sample buffer. Cell lysates were heated at 100° C. for 5 minutes, and 20 μl of cell lysates were loaded to 4-20% Tris-glycine SDS-PAGE (Invitrogen). The transferred membrane was blotted with 1: 1000 anti-phopho STAT6 antibody (Cell signaling) for overnight at 4° C. prior to secondary HRP conjugated anti rabbit antibody. The signal of the membrane was developed by ECL kit, following the manufacturer's instructions.
Because activation of STAT6 is important in IL-4 induced IgE and IgG1 class switching, whether immunomodulatory compounds could inhibit phosphorylation of STAT6 was investigated. B cells were pretreated with 1,3-dioxo-(2,6-dioxopiperidin-3-yl)-4-aminoisoindoline for 30 minutes, then stimulated with 100 ng/ml of IL-4 for 30 minutes. The activation of STAT6 was assessed by anti-phospho-STAT6 (Tyr 641).

Nc1cccc2c1C(=O)N(C1CCC(=O)NC1=O)C2=O (centres unmarked) [1,3-dioxo-(2,6-dioxopiperidin-3-yl)-4-aminoisoindoline]
TLR 9 expression [1]: increase | TNFα production in B cells [2]: dose dependently enhance | IC50 [3]: 100 to 300 nM | morphological changes of B cells [4]: formed large aggregates | phosphorylation of STAT6 (Tyr 641) [5]: block phosphorylation of STAT6
